“And” between values parts separate entries of the source, which are not always exact repeats. Equal values may be shown once. Read-outs that look alike come from different tables or passages of the source.
Columns and labels:
[1] = Ocular toxicology study, twice daily 0.3% Tris-based suspension, 30 days; type: in vivo, Dutch-Belted rabbits
[2] = tested on: HUVECs; assay: Inhibition of VEGF-stimulated mitogenesis in HUVECs; type: cell-based; settings: Homo sapiens, HUVEC
[3] = 5-day PK, topical ocular Compound-I in hydroxypropyl-β-cyclodextrin solutions, 30 μL bilateral dose; type: in vivo, Dutch-Belted rabbits; settings: for Average Concentration, Central Retina: LLOQ = 0.0218 μM
Protocol: All doses were administered with ±1 hour of the scheduled dose time, except on day 1 for Groups 1, 4, and 10. The first dose on day 1 was administered at 12:00 PM, and the second dose (for Groups 1 and 10) was administered approximately 4 hours after. This was due to delayed arrival of formulations. All other dosing for these groups was as scheduled. On day 1, Groups 4-8, and 11-12 received one dose (q.d.) for four (4) days. On days 1 through 4, Groups 1-3, and 9-10 received b.i.d. dosing approximately 8 hours apart for four (4) days.
Ocular sampling occurred one hour following the first daily dose on day 5 for all groups, except Groups 5b and 6b, where ocular sampling occurred 24 hours after the first daily dose on day 4.
Blood samples for plasma collection were obtained just prior to scheduled euthanasia for all animals. […] Cornea, central retina, and central choroid samples from groups 1-12 were assayed. Aqueous humor, peripheral retina, and peripheral choroid samples were not assayed.

[4] = 1- to 5-day PK, topical ocular Compound-I formulations of Table 8A, 30 μL bilateral dose; type: in vivo, Dutch Belted rabbits
Protocol: On day 1, Groups 1, 2, 4-6, 8, 10, 11, 13, 15, and 17 received one dose (q.d.) for either one (1) or four (4) days.
Peripheral retina and peripheral choroid samples were assayed only for Groups 1-8, 12, 14, and 16 per study protocol.

[5] = Solubility; type: physicochemical
[6] = design: species or system Dutch-Belted rabbits; settings: rabbit, in vivo
Protocol: The ocular solution of Compound-I comprising cyclodextrin was prepared and tested in different groups of animals.

[7] = Corneal and choroid exposure compared between formulations (topical ocular dosing); type: in vivo, Dutch-belted rabbits
Description: Overall, the combination of decreased corneal exposure and corresponding improved ocular tolerability, while simultaneously maintaining or promoting drug delivery to the posterior segment target tissues, along with improved physicochemical stability, will provide greater benefit to patients compared to the ophthalmic Gel Drop formulation.

[8] = Group 2 q.d., 1 hr post day 5 morning dose
[9] = Group 2 q.d., 8 hr post day 5 morning dose
[10] = Group 2 q.d., 24 hr post day 5 morning dose
[11] = Group 3 b.i.d., 1 hr post day 5 morning dose
[12] = Group 3 b.i.d., 24 hr post day 5 morning dose
[13] = Group 4 q.d., 1 hr post day 5 morning dose
[14] = Group 5 q.d., 24 hr post day 1 dose
[15] = Group 6 q.d., 1 hr post day 5 morning dose
[16] = Group 6 q.d., 8 hr post day 5 morning dose
[17] = Group 6 q.d., 24 hr post day 5 morning dose
[18] = Group 7 b.i.d., 1 hr post day 5 morning dose
[19] = Group 11 q.d., 24 hr post day 5 morning dose, n = 1

Cl.NC(=O)c1c(OCc2c(F)cc(Br)cc2F)nsc1NC(=O)NCCCCN1CCCC1 [Compound-I, 3-[(4-bromo-2,6-difluorophenyl)methoxy]-5-[[[[4-(1-pyrrolidinyl)butyl]amino]carbonyl]amino]-4-isothiazolecarboxamide hydrochloride]
eyes at microscopic evaluation ([1]; 0.3% w/v Tris-based suspension twice daily for 30 days): considered normal | tolerability, clinical ophthalmic examinations ([1]; rabbit, in vivo): well tolerated | IC50 [2]: 14.1 nM and 0.008 µg/mL | Average Concentration, Central Choroid ([3]; Group 5a q.d., 1 hr after first daily dose on day 5, n = 1): *0.199 μM | Average Concentration, Central Retina ([3]; Group 5b q.d., 24 hr after first daily dose on day 4): <LLOQ | Average Concentration, Central Retina ([3]; Group 6b q.d., 24 hr after first daily dose on day 4): <LLOQ | Average Concentration, Central Choroid ([3]; Group 6b q.d., 24 hr after first daily dose on day 4, n = 1): *0.218 μM | Average Concentration, Central Choroid ([3]; Group 7 q.d., 1 hr after first daily dose on day 5, LLOQ = 0.174 μM): <LLOQ | Average Concentration, Central Choroid ([3]; Group 8 q.d., 1 hr after first daily dose on day 5, n = 1): *0.210 μM | Average Concentration, Central Choroid ([3]; Group 9 b.i.d., 1 hr after first daily dose on day 5, n = 1): *0.287 μM | concentration at 24 h ([4]; Dutch Belted, rabbit, cornea, topical, 30 μL bilateral, Group 2 q.d., 24 hr post day 5 morning dose): 29.7 µM | Average Concentration, Peripheral Choroid ([4]; Group 1 q.d., 0.5 hr post day 1 dose, LLOQ = 0.0349 μM): <LLOQ | Average Concentration, Central Retina ([4]; Group 1 q.d., 1 hr post day 1 dose, LLOQ = 0.0181 μM): <LLOQ | Average Concentration, Peripheral Choroid ([4]; Group 1 q.d., 1 hr post day 1 dose, n = 1): *0.0856 μM | Average Concentration, Central Retina ([4]; Group 1 q.d., 24 hr post day 1 dose, LLOQ = 0.0181 μM): <LLOQ | concentration at 24 h ([4]; Group 1 q.d., 24 hr post day 1 dose, read-out: Average Concentration, Cornea): 6.94 µM | Average Concentration, Aqueous Humor [4, 8]: 0.00996 µM | Average Concentration, Peripheral Choroid [4, 8]: 0.737 µM | Average Concentration, Central Choroid ([4]; Group 2 q.d., 1 hr post day 5 morning dose, n = 1): *0.207 μM | concentration at 24 h ([4]; Group 2 q.d., 1 hr post day 5 morning dose, read-out: Average Concentration, Cornea): 112 µM | Average Concentration, Aqueous Humor [4, 9]: 0.0165 µM | Average Concentration, Peripheral Choroid [4, 9]: 0.687 µM | Average Concentration, Central Choroid ([4]; Group 2 q.d., 8 hr post day 5 morning dose, n = 1): *0.237 μM | concentration at 24 h ([4]; Group 2 q.d., 8 hr post day 5 morning dose, read-out: Average Concentration, Cornea): 32.7 µM | Average Concentration, Aqueous Humor [4, 10]: 0.00336 µM | Average Concentration, Peripheral Choroid [4, 10]: 1.14 µM | Average Concentration, Peripheral Retina [4, 10]: 0.380 µM | Average Concentration, Central Retina ([4]; Group 2 q.d., 24 hr post day 5 morning dose, LLOQ = 0.0181 μM): <LLOQ | Average Concentration, Central Choroid ([4]; Group 2 q.d., 24 hr post day 5 morning dose, n = 1): *0.205 μM | Average Concentration, Aqueous Humor [4, 11]: 0.0142 µM | Average Concentration, Central Choroid [4, 11]: 0.255 µM | concentration at 24 h ([4]; Group 3 b.i.d., 1 hr post day 5 morning dose, read-out: Average Concentration, Cornea): 151 µM | Average Concentration, Aqueous Humor [4, 12]: 0.00774 µM | Average Concentration, Peripheral Retina [4, 12]: 0.0597 µM | concentration at 24 h ([4]; Group 3 b.i.d., 24 hr post day 5 morning dose, read-out: Average Concentration, Cornea): 82.1 µM | Average Concentration, Aqueous Humor [4, 13]: 0.00996 µM | Average Concentration, Central Retina [4, 13]: 0.0431 µM | Average Concentration, Peripheral Choroid [4, 13]: 0.629 µM | Average Concentration, Peripheral Retina [4, 13]: 0.0883 µM | concentration at 24 h ([4]; Group 4 q.d., 1 hr post day 5 morning dose, read-out: Average Concentration, Cornea): 78.7 µM | Average Concentration, Aqueous Humor ([4]; Group 5 q.d., 0.5 hr post day 1 dose, LLOQ = 0.000903 μM): <LLOQ | Average Concentration, Central Retina ([4]; Group 5 q.d., 0.5 hr post day 1 dose, LLOQ = 0.0181 μM): <LLOQ | Average Concentration, Peripheral Choroid ([4]; Group 5 q.d., 0.5 hr post day 1 dose, LLOQ = 0.0349 μM): <LLOQ | concentration at 24 h ([4]; Group 5 q.d., 0.5 hr post day 1 dose, read-out: Average Concentration, Cornea): 21.0 µM | Average Concentration, Peripheral Retina ([4]; Group 5 q.d., 1 hr post day 1 dose): 0.0253 µM | Average Concentration, Peripheral Retina ([4]; Group 5 q.d., 2 hr post day 1 dose): 0.0253 µM | concentration at 24 h ([4]; Group 5 q.d., 8 hr post day 1 dose, read-out: Average Concentration, Cornea): 7.74 µM | Average Concentration, Aqueous Humor [4, 14]: 0.00228 µM | Average Concentration, Peripheral Choroid [4, 14]: 0.116 µM | Average Concentration, Central Retina ([4]; Group 5 q.d., 24 hr post day 1 dose, LLOQ = 0.0181 μM): <LLOQ | Average Concentration, Peripheral Retina ([4]; Group 5 q.d., 24 hr post day 1 dose, n = 1): *0.0103 μM | concentration at 24 h ([4]; Group 5 q.d., 24 hr post day 1 dose, read-out: Average Concentration, Cornea): 2.43 µM | Average Concentration, Aqueous Humor [4, 15]: 0.00323 µM | Average Concentration, Central Choroid [4, 15]: 0.319 µM | Average Concentration, Central Retina [4, 15]: 0.0463 µM | Average Concentration, Peripheral Choroid [4, 15]: 0.311 µM | Average Concentration, Peripheral Retina [4, 15]: 0.0634 µM | concentration at 24 h ([4]; Group 6 q.d., 1 hr post day 5 morning dose, read-out: Average Concentration, Cornea): 21.8 µM | Average Concentration, Aqueous Humor [4, 16]: 0.00742 µM | Average Concentration, Central Retina [4, 16]: 0.0537 µM | Average Concentration, Peripheral Choroid [4, 16]: 0.257 µM | concentration at 24 h ([4]; Group 6 q.d., 8 hr post day 5 morning dose, read-out: Average Concentration, Cornea): 9.10 µM | Average Concentration, Aqueous Humor [4, 17]: 0.00122 µM | Average Concentration, Peripheral Choroid [4, 17]: 0.343 µM | Average Concentration, Peripheral Retina [4, 17]: 0.0533 µM | concentration at 24 h ([4]; Group 6 q.d., 24 hr post day 5 morning dose, read-out: Average Concentration, Cornea): 2.33 µM | Average Concentration, Aqueous Humor [4, 18]: 0.00648 µM | Average Concentration, Central Choroid [4, 18]: 0.514 µM | Average Concentration, Central Retina [4, 18]: 0.0469 µM | Average Concentration, Peripheral Choroid [4, 18]: 0.744 µM | Average Concentration, Peripheral Retina [4, 18]: 0.0819 µM | Average Concentration, Aqueous Humor [4, 19]: *0.00205 μM | Average Concentration, Central Choroid [4, 19]: *0.179 μM | Average Concentration, Central Retina [4, 19]: *0.0185 μM | solubility provided (clinical dose strengths) ([5]; HP-β-CD (KLEPTOSE HPB) at equal to or more than 1:6 molar ratio): 0.1-1.0% | solubility provided (clinical dose strengths) ([5]; SBE-β-CD (CAPTISOL) at equal to or more than 1:2 ratio): 0.1-1.0% | Solubility ([5]; pH 7.5 (0.05M NaH2PO4)): 1.0 mg/mL | Solubility ([5]; pH 9.0 (0.05 m Na2HPO4)): 0.7 mg/mL | tolerability [6]: well-tolerated | reduction in corneal concentrations versus equimolar Gel Drop ([7]; cyclodextrin-based solutions, 1 to 30 days dosing, Dutch-belted rabbits): ~10 × | clinical or histopathologic findings ([7]; ophthalmic solution, repeated topical ocular dosing, rabbits and dogs): free of untoward clinical or histopathologic findings | target therapeutic exposure in the central choroid versus equimolar ophthalmic gel drop ([7]; ophthalmic solution, topical ocular dosing): equal or higher | corneal concentrations, Gel Drop compared to Tris-based suspensions ([7]; rabbit, in vivo): fifty-fold to hundred-fold higher | corneal concentrations, Gel Drop compared to cyclodextrin based solution ([7]; rabbit, in vivo): five-fold to fifteen-fold higher | reduction of exposure (cornea) ([7]; suspension-based and cyclodextrin formulations): 10-100 ×

From patent US10307404B1, “Ocular formulations for drug-delivery to the posterior segment of the eye” (priority 2013, dated 2019)
